*1 amine or outer side, *2 acyl side, *3 side chain or, on linkers, in order; H or OH if unused. Where a SMILES comes first, the peptide text is derived from it. Bridges are numbered along the chain shown (N, C = ends). [ ]: non-standard residue; d: D form. The star is where a group is joined. X1 = CC[C@H](C)[C@@H](N[*:1])[C@@H](O)CC(=O)O[C@H](C(=O)[C@H](C)C(=O)[*:2])C(C)C; NMeY = CN[C@@H](Cc1ccc(O)cc1)C(=O)O; dNMeL = CN[C@H](CC(C)C)C(=O)O; Pyruvoyl = CC(=O)C(=O)*
How the values were obtained:
[1] = system: HGC27 gastric carcinoma cells; assay: Cell growth inhibition (MTT, 72 h), HGC27; format: cell-based; settings: parental HGC27, 72 h
Method: HeLa cervix adenocarcinoma (ATCC CCL-2), K-562 chronic myelogenous leukemia (ATCC CCL-243), NCI-H460 lung cancer (ATCC HTB-177) and HGC27 gastric cancer (ATCC CRL-2506) cells were obtained from ATCC (Manassas, VA, USA) and cultured following standard procedures. Viability assays were performed utilizing 3-(4,5-dimethylthiazol-2-yl)-2,5-diphenyltetrazolium bromide (MTT) according to methods described elsewhere[46].

[2] = system: multiple myeloma cells; settings: cited from earlier work
Text: For example, it is known that eEF1A is able to directly increase the activity of sphingosine kinase-1 (SK1), an effect that is related to oncogenesis. […] The hijacking of eEF1A with the consequent reduction of SK1 activity has already been describe ...

[3] = target: eEF1A2 purified from rabbit muscle (Oryctolagus cuniculus, UniProt Q71V39); settings: saturation binding, Swillens fit
Method: (A) Saturation binding curve. Protein and radioligand were incubated for 1 h at room temperature and samples were processed as described in the text. […] The experiment was performed as described in the text, and the experimental points were fitted to a single exponential decay equation by non-linear regression. […] Extracts were then digested with the indicated concentrations of subtilisin for 30 min at room temperature. Samples were resolved by SDS-PAGE and the degradation of eEF1A2 analyzed by Western blot; quantitation of the bands from the DARTS assay was performed with the ImageJ software.

[4] = system: HGC27-APL-R gastric carcinoma cells (plitidepsin-resistant); assay: Cell growth inhibition (MTT, 72 h), HGC27-APL-R; format: cell-based; settings: highest concentration tested 100 nM
[5] = system: signaling in HeLa cells overexpressing eEF1A2-GFP; assay: Signaling (Western blot) in HeLa overexpressing eEF1A2-GFP; format: cell-based, human; settings: plitidepsin 450 nM
Method: (A) HeLa and HeLa-APL-R cells were stably transfected with an expression vector encoding for eEF1A2-GFP fusion protein. Clones homogeneously expressing the GFP were selected. The levels of expression of eEF1A2 were analyzed by Western blot using specific antibodies. The position of the endogenous and the GFP-fusion proteins are indicated. […] Levels of expression attained after transfection were similar to the endogenous levels. […] Concentration-response curves were performed at 72 h. Cell growth was determined by the MTT method and expressed as percentage of control cell survival.
For transfection and selection of cell clones, HeLa and HeLa-APL-R cells were seeded in 24 well plates at 40% confluence and allowed to stand for 24 hours at 37 °C and 5% CO2. Before transfection, the culture medium was changed to Opti-MEM (Life Technologies, Carlsbad, CA, USA). Plasmids encoding eEF1A2-GFP were incubated with Lipofectamine (Life Technologies, Carlsbad, CA, USA) under the recommendations of the manufacturer and added to the cell medium. After 24 h incubation at 37 °C and 5% CO2, the culture medium was replaced by the standard DMEM supplemented with 2 mg/ml of G-418 for the selection of clones expressing the exogenous gene. Clones were further selected following the expression of the GFP-fused protein through fluorescence microscopy.

[6] = two different COMPARE analyses, no reference given; cited from earlier work
Text: (§1) Plitidepsin (Aplidin) is a cyclic depsipeptide originally isolated from the marine tunicate Aplidium albicans. […] Plitidpesin has recently completed a pivotal phase III clinical trial for multiple myeloma (clinicaltrials.gov identifier: NCT01102426) that has shown a statistically significant 35% reduction in the risk of progression or death over the comparator (p = 0.0054). This study has met its primary endpoint. In tumor cells, the compound induces a potent oxidative stres ...

[7] = system: JNK and p38 MAPK, oxidative stress in tumor cells; settings: cited from earlier work
Text: as §1

[8] = system: multiple myeloma patients; settings: phase III, p = 0.0054, ref clinicaltrials.gov NCT01102426; cited from earlier work
Text: as §1

[9] = system: human haploid cells with eEF1A2 knock-out; settings: CRISPR/CAS9, versus parental cells, data not shown, results not conclusive
[10] = system: sphingosine kinase-1 (SK1); assay: Sphingosine kinase-1 activity in tumor cells; format: cell-based; settings: preliminary, data not shown
[11] = system: CHRM1 (M1 muscarinic acetylcholine receptor); assay: PathHunter CHRM1 activation; format: cell-based; settings: data not shown
Text: For example, it is known that eEF1A is able to directly increase the activity of sphingosine kinase-1 (SK1), an effect that is related to oncogenesis. […] The hijacking of eEF1A with the consequent reduction of SK1 activity has already been described as a biological mechanism in dengue virus type-2 infected cells. Another example is the specific binding of eEF1A2 to the i3 loop of M4, but not M1, muscarinic acetylcholine receptor[40]. This direct interaction with M4 regulates its cell membrane density and activity. […] This is due to a specific interaction of eEF1A with aberrant polypeptides named defective ribosomal products (DRiPs) that are ligated to multi-ubiquitin chains following translation damage; eEF1A also plays a role in sensing DRiP accumulation when the proteasome is inhibited.

[12] = system: three tumor cell lines selected for resistance to plitidepsin
Method: In all cases eEF1A2 protein levels were analyzed by Western Blot as shown in the right hand side of each graph. ● wild type cells, ○ APL-R cells.
HeLa cervix adenocarcinoma (ATCC CCL-2), K-562 chronic myelogenous leukemia (ATCC CCL-243), NCI-H460 lung cancer (ATCC HTB-177) and HGC27 gastric cancer (ATCC CRL-2506) cells were obtained from ATCC (Manassas, VA, USA) and cultured following standard procedures. Viability assays were performed utilizing 3-(4,5-dimethylthiazol-2-yl)-2,5-diphenyltetrazolium bromide (MTT) according to methods described elsewhere.

[13] = system: NCI-H460-APL-R non-small cell lung cancer cells (plitidepsin-resistant); assay: Cell growth inhibition (MTT, 72 h), NCI-H460-APL-R; format: cell-based; settings: highest concentration tested 100 nM

eEF1A2 purified from rabbit muscle, sequence (Q71V39 whole entry): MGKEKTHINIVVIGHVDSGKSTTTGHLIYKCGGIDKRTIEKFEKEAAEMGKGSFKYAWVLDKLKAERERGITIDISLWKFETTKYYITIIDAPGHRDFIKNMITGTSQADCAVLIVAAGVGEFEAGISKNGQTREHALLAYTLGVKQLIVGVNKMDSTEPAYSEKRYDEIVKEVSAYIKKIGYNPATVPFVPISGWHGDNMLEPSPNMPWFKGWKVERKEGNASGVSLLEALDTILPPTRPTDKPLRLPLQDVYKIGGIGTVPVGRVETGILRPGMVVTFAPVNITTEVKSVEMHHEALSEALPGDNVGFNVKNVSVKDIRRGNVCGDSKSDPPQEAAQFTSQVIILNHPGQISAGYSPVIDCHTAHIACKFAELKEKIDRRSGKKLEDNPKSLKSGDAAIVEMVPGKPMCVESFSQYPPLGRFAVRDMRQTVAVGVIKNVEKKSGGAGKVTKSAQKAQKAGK

SMILES: CC[C@H](C)[C@H]1NC(=O)[C@@H](NC(=O)[C@@H](CC(C)C)N(C)C(=O)[C@@H]2CCCN2C(=O)C(C)=O)[C@@H](C)OC(=O)[C@H](Cc2ccc(OC)cc2)N(C)C(=O)[C@@H]2CCCN2C(=O)[C@H](CC(C)C)NC(=O)[C@@H](C)C(=O)[C@H](C(C)C)OC(=O)C[C@@H]1O [plitidepsin, Plitidepsin] (Pyruvoyl-P[dNMeL]T[X1]LP[NMeY](Me); ester 3-C (inferred))
- IC50 [1]: 0.9 nM
- combination effect with bortezomib ([2]; with bortezomib): synergistic
- combination effect with lenalidomide ([2]; with lenalidomide): synergistic
- combination effect with thalidomide ([2]; with thalidomide): synergistic
- Kd ([3]; [14C]-plitidepsin 0.1 to 4 μM, 100 nM rabbit eEF1A2, 1 μM Gpp(NH)p, pH 7.5, 5% DMSO, 1 h, room temperature, filtration, triplicate): 79 ± 30 nM
- Bmax ([3]; [14C]-plitidepsin, 1 h, room temperature): 0.7 mol per mol of protein
- alpha (ratio between non-specifically bound ligand and free ligand) ([3]; [14C]-plitidepsin): 0.014 ± 0.0005
- effect on cell growth [4]: did not cause any effect on cell growth
- alteration in the signaling elicited by plitidepsin [5]: did not show any alteration in the signaling
- similarity with other antitumor agents [6]: no similarity with any other antitumor agent
- activation of JNK and p38 [7]: rapid and sustained activation
- oxidative stress [7]: potent oxidative stress
- reduction in the risk of progression or death over the comparator [8]: 35%
- resistance of eEF1A2 knock-out cells to plitidepsin [9]: increased resistance
- SK1 activity in tumor cells [10]: decrease the activity of this enzyme in tumor cells
- effect on CHRM1 [11]: did not affect CHRM1
- fold resistance to plitidepsin versus parental cells [12]: at least 100 fold
- effect on cell growth [13]: did not cause any effect on cell growth

— publication PMC5054363 (Scientific Reports, 2016)
